{"source": "patent US8338624B2", "about": "“Isoflavone derivatives and uses thereof” (Yeda Research and Development Co., Ltd., priority 2007, dated 2012)", "key": {"[1]": {"tested_on": "320DM human colon cancer cells", "assay": "DNA synthesis by [3H]-thymidine incorporation, 320DM cells", "assay_type": "cell-based", "experimental": "(§1) Cells were cultured in MEM supplemented with 10% FCS and antibiotics. Cells were grown to subconfluence and then treated with various hormones or agents as described by Somjen et al. (Somjen et al., 1998). The cells were characterized in terms of expression of mRNAs for estrogen […] by real time PCR, and the results are summarized in Table 1. N87, 320DM and H295R cells expressed mRNAs for both ERs. The ratio of ERα to ERβ was 1:8.5, 1:30 and 1:1.8 in N87, 320DM and H295R cells, respectively. Ovarian A2780 and prostate C4-24 cells expressed mainly mRNA for ERβ, and the ratio of ERβ to ERα was 300:1 and 70:1, respectively. MLS ovarian cells expressed mRNA only for ERβ. The ratio of ERα to ERβ in T47D cells has been reported to be 9:1.\n[^3H]-Thymidine incorporation into DNA was used for the assessment of the various effects (proliferative or inhibitory) of various isoflavones, isoflavone derivatives and known cytotoxic drugs in the above-mentioned cells. Cells were grown until subconfluence using conditions described in Somjen et al. […] At the end of incubation, [^3H]-thymidine was added for two hours. Cells were then treated with 10% ice-cold trichloroacetic (TCA) for 5 min and washed twice with 5% TCA and then with cold ethanol. The cellular layer was dissolved in 0.3 ml of 0.3 M NaOH, aliquots were taken for counting radioactivity, and [^3H]-thymidine incorporation into DNA was calculated."}, "[2]": {"tested_on": "human prostate C4-2B cancer cells", "assay": "DNA synthesis by [3H]-thymidine incorporation, C4-2B cells", "assay_type": "cell-based", "experimental": "as §1\n(§2) [^3H]-Thymidine incorporation into DNA was used for the assessment of the various effects (proliferative or inhibitory) of various isoflavones, isoflavone derivatives and known cytotoxic drugs in the above-mentioned cells. Cells were grown until subconfluence using conditions described in Somjen et al. (Somjen et al., 1998) and then treated with various agents for 24 or 48 h as indicated. At the end of incubation, [^3H]-thymidine was added for two hours. Cells were then treated with 10% ice-cold trichloroacetic (TCA) for 5 min and washed twice with 5% TCA and then with cold ethanol. The cellular layer was dissolved in 0.3 ml of 0.3 M NaOH, aliquots were taken for counting radioactivity, and [^3H]-thymidine incorporation into DNA was calculated."}, "[3]": {"tested_on": "Human umbilical vascular smooth muscle cells (VSMC)", "assay": "DNA synthesis by [3H]-thymidine incorporation, normal VSMC", "assay_type": "cell-based", "conditions": "compound at 3 μM", "experimental": "Human umbilical vascular smooth muscle cells (VSMC) sensitive to estrogen, were grown in culture as described above, and used only at passages 1-3, when expression of smooth muscle actin was clearly demonstrable (Somjen et al. 2000). The ratio of the expression of mRNA for ERα to ERβ was 2.7:1.\nas §2"}, "K-562 leukemia cell line": {"tested_on": "K-562 leukemia cell line", "assay": "NCI In Vitro Cell Line Screening, K-562", "assay_type": "cell-based", "conditions": "Homo sapiens, K562, read-out: log10 GI50 (converted)", "experimental": "(§3) An in vitro cell line screen for the t-boc derivative of daidzein (compound 9) was performed at the NCI/NIH US utilizing the In Vitro Cell Line Screening Project (IVCLSP) (National Cancer Institute, Developmental Therapeutics Program, Information Technology Branch, Rockville, Md., USA).\n(§4) The operation of this screen utilized 60 different human tumor cell lines, representing leukemia, melanoma and cancers of the lung, colon, brain, ovary, breast, prostate, and kidney. […] Using these algorithms, it is possible to assign a putative mechanism of action to a test compound, or to determine that the response pattern is unique and not similar to that of any of the standard prototype compounds included in the NCI database.\n(§5) To facilitate analysis of the data, three endpoints were calculated for each cell line: The GI50 value, which is the negative log10 of the concentration required to inhibit the growth of that cell line by 50% (relative to untreated cells); TGI, the negative log10 of minimum concentration that causes total growth inhibition; and LC50, which reflects the negative log10 concentration needed to kill 50% of the cells. A Mean Graph was used as a way of easily visualizing the results from all 60 cell lines at once. To generate this graph, the mean of GI50 values across all 60 cell lines was calculated. […]"}, "[4]": {"tested_on": "MDA-MB-435 breast cancer cell line", "assay": "NCI In Vitro Cell Line Screening, MDA-MB-435", "assay_type": "cell-based", "conditions": "Homo sapiens, read-out: log10 GI50 (converted)", "experimental": "as §3, §4, §5"}, "[5]": {"tested_on": "T-47D breast cancer cell line", "assay": "NCI In Vitro Cell Line Screening, T-47D", "assay_type": "cell-based", "conditions": "Homo sapiens, T47D, read-out: log10 GI50 (converted)", "experimental": "as §3, §4, §5"}, "[6]": {"tested_on": "SK-MEL-5 melanoma cell line", "assay": "NCI In Vitro Cell Line Screening, SK-MEL-5", "assay_type": "cell-based", "conditions": "Homo sapiens, read-out: log10 GI50 (converted)", "experimental": "as §3, §4, §5"}, "MLS ovarian xenografts": {"tested_on": "MLS ovarian xenografts", "assay": "MLS ovarian xenografts in nude mice", "assay_type": "in vivo", "conditions": "9 iv 400 μg/mouse every other day", "source_text": "Female CD1 nude mice (8-week old, ˜30 g) were housed and handled with free access to food and water in the animal facility according to the guidelines (1996) of the Institutional Animal Care and Use Committee of the Weizmann Institute of Science, Rehovot, Israel.\nThirty female nude mice (8 weeks old) were inoculated sub-cutaneously (sc) with MLS ovarian carcinoma cells (1.5×10^6/mouse). Ten days later, when the tumors were palpable, the mice were randomly divided into 3 groups (8-10 mice/group). The mice in each group were iv injected every other day either with a vehicle (Neowater, a solubilization enhancer, 0.1 ml), daunomycin dissolved in Neowater (200 μg/mouse in 0.1 ml vehicle, total dose during treatment 1 mg/mouse), or compound 9 dissolved in Neowater (400 μg/mouse in 0.1 ml vehicle, total dose during treatment 2 mg/mouse). During treatment, body weight was recorded to monitor toxicity of the treatment, and the tumors were measured with an external caliper. Tumor volume was calculated using the formula length×width×height×π/6. Statistical significance was assessed using student's t test, and differences were considered significant at p<0.05."}}, "data": [{"smiles": "CC(C)(C)OC(=O)NCCCCCCNC(=O)COc1ccc2c(=O)c(-c3ccc(O)cc3)coc2c1", "note": "[Compound 9]", "values": [{"measurement": "incubation time at which plateau of inhibition of DNA synthesis was reached", "setting": "[1]", "result": 72, "unit": "h"}, {"measurement": "DNA synthesis, ratio experimental/control (E/C)", "setting": "[1]; 9 (0.3 μM) + E2 30 nM", "result": "1.08 ± 0.16"}, {"measurement": "DNA synthesis, ratio experimental/control (E/C)", "setting": "[1]; 9 (0.3 μM) + E2 0.3 μM", "result": "1.90 ± 0.05"}, {"measurement": "anti-proliferative effect in presence of apoptosis inhibitor", "setting": "[1]; 9 at 0.3 μM + Z-VADFK", "result": "the anti-proliferative effect of 9 was not discernible"}, {"measurement": "DNA synthesis, ratio experimental/control (E/C)", "setting": "[1]; 9 at 0.3 μM + Z-VADFK (25 μM)", "result": "1.18 ± 0.14"}, {"measurement": "suppression of the proliferative effect of estradiol", "setting": "[1]; 9 at 0.3 μM + estradiol 300 nM", "result": "could not suppress its proliferative effect"}, {"measurement": "DNA synthesis, ratio experimental/control (E/C)", "setting": "[1]; 9 at 0.3 μM alone (Table 3)", "result": "0.63 ± 0.11"}, {"measurement": "DNA synthesis, ratio experimental/control (E/C)", "setting": "[1]; 9 at 0.3 μM alone (Table 4)", "result": "0.68 ± 0.14"}, {"measurement": "DNA synthesis, ratio experimental/control (E/C)", "setting": "[1]; 9 at 3 μM + Z-VADFK (25 μM)", "result": "0.5 ± 0.11"}, {"measurement": "DNA synthesis, ratio experimental/control (E/C)", "setting": "[1]; 9 at 3 μM alone (Table 4)", "result": "0.04 ± 0.22"}, {"measurement": "effect on [3H]-thymidine incorporation into DNA", "setting": "[1]; 15 to 6000 nM", "result": "dose dependent decreases"}, {"measurement": "inhibition at 0.3 µM", "setting": "[1]; Homo sapiens, 9 at 0.3 μM alone", "result": 32, "unit": "%"}, {"measurement": "inhibition at 3 µM", "setting": "[1]; Homo sapiens, 9 at 3 μM alone", "result": "≤ 96", "unit": "%"}, {"measurement": "DNA synthesis, ratio experimental/control (E/C)", "setting": "[1]; compound at 3 μM", "result": "0.08 ± 0.01"}, {"measurement": "DNA synthesis (% of control)", "setting": "[1]; estradiol 30 nM + 0.3 μM compound 9", "result": 100, "unit": "%"}, {"measurement": "inhibition at 0.03 µM", "setting": "[2]; Homo sapiens, at 30 nM", "result": 30, "unit": "%"}, {"measurement": "inhibition at 0.3 µM", "setting": "[2]; Homo sapiens, at 300 nM", "result": "~50", "unit": "%"}, {"measurement": "DNA synthesis, ratio experimental/control (E/C)", "setting": "[2]; compound at 0.3 μM", "result": "0.28 ± 0.2"}, {"measurement": "DNA synthesis, ratio experimental/control (E/C)", "setting": "[3]", "result": "0.73 ± 0.13"}, {"measurement": "GI50", "setting": "K-562 leukemia cell line", "result": 646, "unit": "nM"}, {"measurement": "GI50", "setting": "[4]", "result": 1820, "unit": "nM"}, {"measurement": "GI50", "setting": "[5]", "result": 1350, "unit": "nM"}, {"measurement": "GI50", "setting": "[6]", "result": 631, "unit": "nM"}, {"measurement": "weight reduction or death of treated mice", "setting": "MLS ovarian xenografts", "result": "No weight reduction or death"}, {"measurement": "weight reduction or death of treated mice", "setting": "MLS ovarian xenografts; listed as t-Boc daidzein derivative", "result": "did not cause death or weight loss"}]}]}
